Test results published in PubChem BioAssay (NCI).
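Each compound was tested at five concentrations against cells in 96-well plates for 48 hours. The concentration for full growth arrest is given as TGI.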

Experiments:
Test in all cases: growth of human tumour cells (NCI), 48 h
LOX IMVI melanoma = system: LOX IMVI melanoma
SNB-19 CNS = system: SNB-19 CNS
KM20L2 colon = system: KM20L2 colon
HCT-15 colon = system: HCT-15 colon
SK-MEL-28 melanoma = system: SK-MEL-28 melanoma
UO-31 renal = system: UO-31 renal
HOP-62 NSCLC = system: HOP-62 NSCLC
NCI-H522 lung = system: NCI-H522 lung
HCT-116 colon = system: HCT-116 colon
SK-OV-3 ovarian = system: SK-OV-3 ovarian
SW-620 colon = system: SW-620 colon
A549 NSCLC = system: A549 NSCLC
OVCAR-3 ovarian = system: OVCAR-3 ovarian
M14 melanoma = system: M14 melanoma
DU-145 prostate = system: DU-145 prostate
NCI/ADR-RES ovarian = system: NCI/ADR-RES ovarian
PC-3 prostate = system: PC-3 prostate
HCC-2998 colon = system: HCC-2998 colon
MCF7 breast = system: MCF7 breast
NCI-H226 lung = system: NCI-H226 lung

Structure (SMILES)	TGI (LOX IMVI melanoma)	TGI (SNB-19 CNS)	TGI (KM20L2 colon)	TGI (HCT-15 colon)	TGI (SK-MEL-28 melanoma)	TGI (UO-31 renal)	TGI (HOP-62 NSCLC)	TGI (NCI-H522 lung)	TGI (HCT-116 colon)	TGI (SK-OV-3 ovarian)	TGI (SW-620 colon)	TGI (A549 NSCLC)	TGI (OVCAR-3 ovarian)	TGI (M14 melanoma)	TGI (DU-145 prostate)	TGI (NCI/ADR-RES ovarian)	TGI (PC-3 prostate)	TGI (HCC-2998 colon)	TGI (MCF7 breast)	TGI (NCI-H226 lung)
CCOc1ccc(N=Cc2cc(OC)c(OC)c(OC)c2)cc1	> 100 µM	> 100 µM	> 100 µM	> 100 µM	> 100 µM	> 100 µM	> 100 µM	> 100 µM	> 100 µM	> 100 µM	32.1 µM	> 100 µM	> 100 µM	> 100 µM	–	–	–	–	–	–
COc1cc2c[n+](C)c3c4ccccc4ccc3c2cc1OC	45 µM	33.6 µM	–	> 100 µM	18.1 µM	> 100 µM	37.4 µM	5.57 µM	> 67.7 µM	32.5 µM	> 63.6 µM	23.2 µM	34.9 µM	42.6 µM	14 µM	> 100 µM	> 43.2 µM	42.4 µM	> 100 µM	14.4 µM
COc1cc2c(cc1OC)-c1cc3ccccc3c(=O)n1CCC2	13.7 µM	> 100 µM	–	27.5 µM	> 73.6 µM	61.1 µM	> 75.3 µM	74.9 µM	> 38.6 µM	> 100 µM	> 87.9 µM	> 100 µM	60.4 µM	> 59.1 µM	> 66 µM	32.2 µM	62.7 µM	> 64.3 µM	> 89.5 µM	70.5 µM
COC(=O)C1=NN2c3ccccc3CN([C@@H](C)c3ccccc3)C(=O)[C@@H]2C1	77.1 µM	> 100 µM	–	> 100 µM	> 100 µM	60.7 µM	> 100 µM	53.1 µM	> 100 µM	> 100 µM	> 100 µM	> 100 µM	97.9 µM	57.5 µM	> 100 µM	56.1 µM	> 100 µM	> 100 µM	> 100 µM	> 100 µM
COc1cc(CNC(=O)CCCCCCCC/C=C/Br)ccc1O	> 10 µM	> 10 µM	–	> 10 µM	> 10 µM	> 10 µM	> 10 µM	> 10 µM	> 10 µM	> 10 µM	> 10 µM	> 10 µM	> 10 µM	> 10 µM	> 10 µM	> 10 µM	> 10 µM	> 10 µM	> 10 µM	> 10 µM
CC(C)C1OCC(CO)CO1 (stereo not given)	> 100 µM	> 100 µM	–	> 100 µM	> 100 µM	> 100 µM	> 100 µM	> 100 µM	> 100 µM	> 100 µM	> 100 µM	> 100 µM	> 100 µM	> 100 µM	> 100 µM	> 100 µM	> 100 µM	> 100 µM	> 100 µM	> 100 µM
CCOC(=O)c1sc2nc(SC)nc(Nc3ccc(OC)c(OC)c3)c2c1N	> 100 µM	56 µM	–	> 100 µM	52.7 µM	> 100 µM	26 µM	> 100 µM	> 100 µM	52.9 µM	> 100 µM	> 100 µM	> 100 µM	> 100 µM	> 100 µM	> 100 µM	> 100 µM	> 100 µM	> 100 µM	> 100 µM
COc1cc2cc(C(=O)N3CC(COS(C)(=O)=O)c4c3cc([N+](=O)[O-])c3ccccc43)[nH]c2c(OC)c1OC (stereo not given)	> 100 µM	> 31.6 µM	–	> 31.6 µM	> 31.6 µM	> 31.6 µM	> 31.6 µM	> 31.6 µM	15.6 µM	> 100 µM	> 31.6 µM	> 31.6 µM	> 31.6 µM	> 31.6 µM	> 22.4 µM	> 31.6 µM	> 31.6 µM	> 31.6 µM	> 31.6 µM	> 100 µM
CCCCNc1nc(SC)nc2nc[nH]c12	> 100 µM	> 100 µM	–	> 100 µM	> 100 µM	> 100 µM	> 100 µM	> 100 µM	> 100 µM	41.9 µM	> 100 µM	> 100 µM	> 100 µM	> 100 µM	> 100 µM	> 100 µM	> 100 µM	> 100 µM	> 100 µM	> 100 µM
COc1cc(OC)c(/C=N/N=C(\N)NO)c(OC)c1	> 100 µM	> 100 µM	–	> 100 µM	> 100 µM	81.2 µM	> 100 µM	> 100 µM	> 100 µM	> 100 µM	> 100 µM	> 100 µM	> 100 µM	> 100 µM	> 100 µM	> 100 µM	> 100 µM	> 100 µM	> 100 µM	> 100 µM
Cc1cc2c3c(ccc4ncc(c43)CN2c2ccc(NS(C)(=O)=O)cc2)[nH]1	> 100 µM	10.4 µM	–	> 100 µM	> 100 µM	78.4 µM	46.1 µM	> 100 µM	44.1 µM	97.5 µM	> 100 µM	88.5 µM	81.5 µM	> 100 µM	> 100 µM	> 100 µM	> 100 µM	> 100 µM	> 100 µM	78.3 µM
COC(=O)c1ccccc1CC1Cc2cc3c(cc2C1)CCC3	47.8 µM	> 100 µM	–	> 100 µM	> 100 µM	> 100 µM	> 100 µM	91.6 µM	83.1 µM	> 100 µM	> 100 µM	> 100 µM	> 100 µM	93.4 µM	> 100 µM	> 100 µM	> 100 µM	> 100 µM	> 100 µM	> 100 µM
CC(=O)CN=C(C)NNc1ccc([N+](=O)[O-])cc1[N+](=O)[O-]	> 100 µM	> 100 µM	–	> 100 µM	> 100 µM	> 100 µM	> 100 µM	> 100 µM	> 100 µM	> 100 µM	> 100 µM	> 100 µM	> 100 µM	> 100 µM	> 100 µM	> 100 µM	> 100 µM	> 100 µM	> 100 µM	> 100 µM
OC[C@H]1CC(c2nn[nH]n2)[C@H](O)[C@@H]1O (stereo not given in full)	> 100 µM	> 100 µM	–	> 100 µM	> 100 µM	> 100 µM	> 100 µM	> 100 µM	> 100 µM	> 100 µM	> 100 µM	> 100 µM	> 100 µM	> 100 µM	> 100 µM	> 100 µM	> 100 µM	> 100 µM	> 100 µM	> 100 µM
COc1ccc(-c2nc3ccc(C)cc3o2)c(OC)c1	31 µM	61.4 µM	–	58.8 µM	> 100 µM	58.1 µM	> 56 µM	39.2 µM	35.8 µM	> 100 µM	> 86 µM	> 67.4 µM	46.9 µM	35.7 µM	50.5 µM	99.9 µM	67.1 µM	45.8 µM	> 100 µM	79.1 µM
O=[N+]([O-])c1cc(Cl)ccc1S(=O)(=O)c1ccccc1	> 100 µM	> 100 µM	–	> 100 µM	> 100 µM	> 100 µM	> 100 µM	> 100 µM	> 100 µM	> 100 µM	> 100 µM	> 100 µM	> 100 µM	> 100 µM	> 100 µM	> 100 µM	> 100 µM	> 100 µM	> 100 µM	> 100 µM
CNC(=O)N(CCC#N)CCN(CCN(C(=O)NC)c1ccccc1)C(=O)NC	> 100 µM	> 100 µM	–	> 100 µM	> 100 µM	> 100 µM	> 100 µM	> 100 µM	> 100 µM	> 100 µM	> 100 µM	> 100 µM	> 100 µM	> 100 µM	> 100 µM	> 100 µM	> 100 µM	> 100 µM	> 100 µM	> 100 µM
O=C(O)/C(=C\c1ccccc1)Cc1ccccc1	> 100 µM	> 100 µM	–	> 100 µM	> 100 µM	> 100 µM	> 100 µM	> 100 µM	> 100 µM	> 100 µM	> 100 µM	> 100 µM	> 100 µM	> 100 µM	> 100 µM	> 100 µM	> 100 µM	> 100 µM	> 100 µM	> 100 µM
CC(C)(C)SC1=CCC[C@@H](P(=O)(c2ccccc2)c2ccccc2)[C@@H]2CCC[C@@H]12	33.5 µM	30.9 µM	–	33 µM	54.6 µM	30.2 µM	31.8 µM	31.3 µM	27.3 µM	33.8 µM	85.3 µM	35.2 µM	32.7 µM	29.5 µM	39.8 µM	35.1 µM	28.6 µM	29.9 µM	31.1 µM	35.6 µM
Cc1cccc(C)c1NC(=S)/N=C/C1=C(O)c2ccccc2C1=O	> 100 µM	> 100 µM	–	> 100 µM	> 100 µM	> 86.1 µM	> 100 µM	17.9 µM	> 59.8 µM	> 29.3 µM	> 100 µM	> 100 µM	> 100 µM	> 100 µM	> 100 µM	> 100 µM	> 100 µM	> 100 µM	> 100 µM	> 100 µM
